Results: patent publication US4021557A, “11-Aminoalkyl-pyridobenzodiazepinones and salts thereof” (Boehringer Ingelheim GmbH, priority 1974, dated 1977)

Experiments:
[1] = test system: acetylcholine-induced bronchospasm; assay: Antagonism to acetylcholine-provoked bronchospasm in anesthetized guinea pigs (Konzett and Rossler), i.v.; antiasthmatic / bronchospasmolytic activity; type: in vivo; conditions: guinea pig; for ED50: Cavia porcellus, iv, 20γ acetylcholine per kg i.v., graphic extrapolation, read-out: Bronchospasmolytic ED50 against acetylcholine-induced bronchospasm
Description: The antiasthmatic activity was tested as the antagonism to bronchospasm provoked by intravenous administration of 20γ of acetylcholine per kg body weight in anesthetized guinea pigs (according to method of Konzett and Rossler). From the average percentage decrease of the bronchospasm produced by administering various doses of the compounds of the […] invention an ED50 was determined by graphic extrapolation. The compounds were administered intravenously.

heart rate = assay: Effect on heart rate of the anesthetized cat after intravenous administration; type: in vivo; parameters: key to type of the reaction (heart rate): --: decrease in heart rate; conditions: i.v.; for ED10 (dose leading to a 10% alteration of the heart rate) / ED25 (dose leading to a 25% alteration of the heart rate): graphic extrapolation; for type of the reaction (heart rate): tested dosage range 250 - 4,000 γ/kg (A 12.5 - 16,000; W 125 - 4,000)
Description: The effect on the heart rate was tested on cats of both sexes (body weight between 2.3 and 3.5 kg) under chloralose-urethane anesthesia. The heart rate was continuously registered by means of a Grass-tachograph 7P4, controlled by the R-wave of the electrocardiogram. The test compound was injected through a catheter introduced into the vena femoralis.

[2] = Acute toxicity after i.v. administration in NMRI-mice (Litchfield and Wilcoxon); conditions: mouse, in vivo, iv, both sexes, deaths within 14 days, read-out: LD50 in the mouse after i.v. application
Description: The acute toxicity was determined with NMRI-mice of both sexes (body weight 20 gm) after intravenous administration of the compound. 0.1 ml of a 0.9% sodium chloride solution per 10gm of animal was used as the vehicle.

quantity of secretion = assay: Expectorant (secretolytic) activity in anesthetized guinea pigs (Perry et al, modified by Engelhorn et al), oral; type: in vivo; conditions: guinea pig, over 2 hours
Description: The expectorant activity was ascertained by the method of Perry et al, J. Pharmcol. exp. Therap. 73, 65 (1941), as modified by Engelhorn et al, Arzneim. Forsch. 21, 1045 (1971), on male guinea pigs (body weight from 450 to 550 gm), which has been anesthetized by intraperitoneal injection of a 25% urethane solution (1.0 gm/kg). The test compound was administered orally at the indicated dosage levels, each in 2 ml of distilled water, by means of an esophageal tube. 5 tests per dose. The increase in secretion was calculated from the quantity of fluid secreted over a period of 2 hours after administration of the test compound, as compared to the quantity secreted without administration of the test compound.

Row | Structure (SMILES) | ED50 [1] [mg/kg] | Average duration of effective action in the ED50 range [1] [min] | ED10 (dose leading to a 10% alteration of the heart rate) (heart rate) | ED25 (dose leading to a 25% alteration of the heart rate) (heart rate) | type of the reaction (heart rate) (heart rate) | LD50 at 336 h [2] [mg/kg] | percent change in quantity of secretion (increase) (quantity of secretion; dose 0.5 γ/kg) [%] | percent change in quantity of secretion (increase) (quantity of secretion; dose 5 γ/kg) [%]
1 | CC(C)N(CCCN1c2ccccc2N(C)C(=O)c2cccnc21)C(C)C.Cl [J, 6,11-dihydro-11-(3'-diisopropylamino-n-propyl)-6-methyl-5H-pyrido[2,3-b][1,5]benzodiazepin-5one hydrochloride] | 0.0165 | 50 | 1,950 γ/kg | > 4,000 γ/kg | -- | 22.6 | 108 | 
2 | CCN(CCCN1c2ccccc2N(C)C(=O)c2cccnc21)C(C)C.Cl [K, 11-[3'-(n-ethyl-N-isopropyl-amino)-n-propyl]-6,11-dihydro-6-methyl-5H-pyrido[2,3-b][1,5]benzodiazepin-5-one hydrochloride] | 0.02 | > 80 | 1,350 γ/kg | > 4,000 γ/kg | -- | 30 | 113 | 
3 | CN(C)CCCN1c2ccccc2N(C)C(=O)c2cccnc21.Cl [C, 6,11-dihydro-11-(3'-dimethylamino-n-propyl)-6-methyl-5H-pyrido[2,3-b][1,5]benzodiazepin-5-one hydrochloride] | 0.081 | > 60 | > 4,000 γ/kg |  | -- | 30.7 |  | 
4 | CN1C(=O)c2cccnc2N(CCN2CCCC2)c2ccccc21.Cl [O, 6,11-dihydro-6-methyl-11-(2'-pyrrolidino-ethyl)-5H-pyrido[2,3-b][1,5]benzodiazepin-5-one hydrochloride] | 0.097 | > 30 | > 4,000 γ/kg |  | -- | 11.4 |  | 
5 | CCN(CC)CCCN1c2ccccc2N(C)C(=O)c2cccnc21.Cl [A, 11-(3'-diethylamino-n-propyl)-6,11-dihydro-6-methyl-5H-pyrido[2,3-b][1,5]benzodiazepin-5-one hydrochloride] | 0.031 | > 130 | 2,100 γ/kg | > 16,000 γ/kg | -- | 62.3 | 80 | 114
6 | CC(C)N(CCCN1c2ccccc2C(=O)N(C)c2cccnc21)C(C)C.Cl [T, 5,11-dihydro-11-(3'-diisopropylamino-n-propyl)-5-methyl-6H-pyrido[2,3-b][1,4]benzodiazepin-6-one hydrochloride] | 0.0165 | 50 | 1,400 γ/kg | 3,600 γ/kg | -- | 22.2 |  | 
7 | CN1C(=O)c2cccnc2N(CCCN2CCCC2)c2ccccc21.Cl [L, 6,11-dihydro-6-methyl-11-(3'-pyrrolidino-n-propyl)-5H-pyrido[2,3-b][1,5]benzodiazepin-5one hydrochloride] | 0.043 | 120 | 1,900 γ/kg | 3,950 γ/kg | -- | 22.7 |  | 
